Test results: patent US10308639B2, “Phosphatidylinositol 3-kinase inhibitors” (Gilead Sciences, Inc., priority 2014, dated 2019)
Like-named read-outs stand apart in the source and are kept apart here.

Tests used:
[1] = target: T1, PI3Kγ (Homo sapiens, UniProt P48736); test: TR-FRET enzymatic activity assay, PI3Kγ; assay type: biochemical
T1 construct: made in house
Procedure: The compounds of formula (I) were characterized for their enzymatic activity against the PI3K isoforms. The activities were measured using a time-resolved fluorescence resonance energy transfer (TR-FRET) assay.

[2] = target: T2, PI3Kδ (Homo sapiens, UniProt O00329); test: TR-FRET enzymatic activity assay, PI3Kδ; assay type: biochemical; conditions: Table 2a; same assay
T2 construct: made in house
T2 sequence (O00329 whole entry): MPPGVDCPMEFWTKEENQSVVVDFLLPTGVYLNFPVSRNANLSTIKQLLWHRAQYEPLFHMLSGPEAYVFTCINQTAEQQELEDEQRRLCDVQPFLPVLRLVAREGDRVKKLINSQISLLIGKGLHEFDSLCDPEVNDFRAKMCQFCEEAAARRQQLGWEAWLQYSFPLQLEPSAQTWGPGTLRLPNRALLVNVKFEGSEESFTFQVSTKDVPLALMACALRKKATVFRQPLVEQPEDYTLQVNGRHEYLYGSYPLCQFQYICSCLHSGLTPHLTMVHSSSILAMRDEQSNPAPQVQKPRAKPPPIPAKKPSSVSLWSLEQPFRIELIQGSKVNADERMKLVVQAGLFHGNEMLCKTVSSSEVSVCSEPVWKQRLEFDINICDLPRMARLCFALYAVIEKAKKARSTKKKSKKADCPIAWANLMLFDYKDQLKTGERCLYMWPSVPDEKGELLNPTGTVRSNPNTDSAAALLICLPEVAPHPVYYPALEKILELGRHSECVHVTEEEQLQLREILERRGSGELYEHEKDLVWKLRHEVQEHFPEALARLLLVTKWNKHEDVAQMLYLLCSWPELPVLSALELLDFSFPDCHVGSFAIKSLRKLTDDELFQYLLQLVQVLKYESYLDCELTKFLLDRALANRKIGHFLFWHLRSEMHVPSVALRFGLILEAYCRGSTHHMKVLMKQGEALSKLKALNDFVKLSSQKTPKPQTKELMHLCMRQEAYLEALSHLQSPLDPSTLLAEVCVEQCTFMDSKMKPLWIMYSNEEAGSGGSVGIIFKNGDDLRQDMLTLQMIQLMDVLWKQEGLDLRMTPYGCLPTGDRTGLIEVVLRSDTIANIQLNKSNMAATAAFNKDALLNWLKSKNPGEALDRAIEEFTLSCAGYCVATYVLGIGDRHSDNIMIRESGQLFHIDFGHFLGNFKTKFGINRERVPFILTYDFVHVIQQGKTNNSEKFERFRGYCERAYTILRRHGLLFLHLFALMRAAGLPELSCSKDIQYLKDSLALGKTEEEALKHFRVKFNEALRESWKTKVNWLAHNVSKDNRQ
T2 sequence (P27986 whole entry partner): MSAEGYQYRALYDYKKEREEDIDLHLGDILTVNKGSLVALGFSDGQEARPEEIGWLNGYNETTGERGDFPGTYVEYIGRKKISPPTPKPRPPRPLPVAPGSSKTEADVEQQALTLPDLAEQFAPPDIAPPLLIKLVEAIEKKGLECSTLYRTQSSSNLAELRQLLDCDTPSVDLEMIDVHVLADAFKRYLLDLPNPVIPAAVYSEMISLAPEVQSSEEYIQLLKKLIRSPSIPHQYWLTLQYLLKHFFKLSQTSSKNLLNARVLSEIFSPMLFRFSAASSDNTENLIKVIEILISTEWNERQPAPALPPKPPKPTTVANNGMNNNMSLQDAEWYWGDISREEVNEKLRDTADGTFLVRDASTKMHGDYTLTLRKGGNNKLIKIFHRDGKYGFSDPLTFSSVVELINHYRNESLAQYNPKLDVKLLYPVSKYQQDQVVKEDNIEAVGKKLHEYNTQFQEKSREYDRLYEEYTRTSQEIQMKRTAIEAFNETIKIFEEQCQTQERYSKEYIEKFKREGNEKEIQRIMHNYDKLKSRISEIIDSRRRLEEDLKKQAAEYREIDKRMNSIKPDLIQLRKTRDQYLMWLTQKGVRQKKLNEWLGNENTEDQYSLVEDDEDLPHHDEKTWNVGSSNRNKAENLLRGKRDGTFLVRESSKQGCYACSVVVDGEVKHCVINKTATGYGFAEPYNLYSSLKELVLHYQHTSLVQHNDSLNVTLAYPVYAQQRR

[3] = Table 2, TR-FRET, 2x Km ATP, 30 minutes at 25° C., read-out: PI3Kγ IC50
[4] = Table 2a, same assay, read-out: PI3Kγ IC50

T1 sequence (P48736 whole entry): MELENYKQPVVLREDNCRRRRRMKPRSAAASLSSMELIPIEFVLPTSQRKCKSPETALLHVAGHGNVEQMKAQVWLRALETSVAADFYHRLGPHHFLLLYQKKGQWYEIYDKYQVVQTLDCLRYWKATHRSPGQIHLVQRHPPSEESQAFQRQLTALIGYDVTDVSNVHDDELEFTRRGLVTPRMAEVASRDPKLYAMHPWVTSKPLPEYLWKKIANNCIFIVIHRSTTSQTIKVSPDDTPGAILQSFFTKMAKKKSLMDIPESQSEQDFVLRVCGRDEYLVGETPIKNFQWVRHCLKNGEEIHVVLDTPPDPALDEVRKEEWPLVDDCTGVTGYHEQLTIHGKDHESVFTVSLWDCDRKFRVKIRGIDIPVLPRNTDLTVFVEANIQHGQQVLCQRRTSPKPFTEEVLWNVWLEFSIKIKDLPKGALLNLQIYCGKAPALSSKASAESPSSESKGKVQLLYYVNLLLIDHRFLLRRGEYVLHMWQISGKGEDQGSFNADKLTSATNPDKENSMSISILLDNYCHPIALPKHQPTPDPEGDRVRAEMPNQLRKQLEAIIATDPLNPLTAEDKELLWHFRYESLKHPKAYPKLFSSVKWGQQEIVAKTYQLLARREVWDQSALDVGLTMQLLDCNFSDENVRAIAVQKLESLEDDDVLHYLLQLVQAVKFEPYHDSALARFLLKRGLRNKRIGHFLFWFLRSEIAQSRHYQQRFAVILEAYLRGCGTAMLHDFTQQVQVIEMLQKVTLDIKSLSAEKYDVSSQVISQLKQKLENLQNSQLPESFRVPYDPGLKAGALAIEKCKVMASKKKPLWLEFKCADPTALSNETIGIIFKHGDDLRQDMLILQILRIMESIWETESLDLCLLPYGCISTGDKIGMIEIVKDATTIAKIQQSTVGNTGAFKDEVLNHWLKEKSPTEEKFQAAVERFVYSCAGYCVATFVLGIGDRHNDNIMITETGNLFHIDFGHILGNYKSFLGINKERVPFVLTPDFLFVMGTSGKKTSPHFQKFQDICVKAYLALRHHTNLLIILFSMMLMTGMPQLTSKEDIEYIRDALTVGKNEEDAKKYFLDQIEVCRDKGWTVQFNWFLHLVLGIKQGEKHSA

Row | IC50 [1, 3] [µM] | IC50 [1, 4] [µM] | SMILES | also measured
1 | 5.9 |  | Nc1nc(N)c(Cl)c(N[C@H](c2nc3cccc(Cl)c3c(=O)n2-c2cc[nH]n2)C2CC2)n1 [Compound 20, (S)-5-chloro-2-(cyclopropyl((2,6-diamino-5-chloropyrimidin-4-yl)amino)methyl)-3-(1H-pyrazol-3-yl)quinazolin-4(3H)-one] | 
2 |  | > 10 | Nc1nc(N)c(Cl)c(N[C@@H](c2nc3cccc(Cl)c3c(=O)n2-c2cc[nH]n2)C2CC2)n1 [Compound 160, (R)-5-chloro-2-(cyclopropyl((2,6-diamino-5-chloropyrimidin-4-yl)amino)methyl)-3-(1H-pyrazol-3-yl)quinazolin-4(3H)-one] | 
3 |  | 4.3 | C[C@H](Nc1nc(N)nc(C(F)F)c1C#N)c1nc2c(F)cccc2c(=O)n1-c1cc[nH]n1 [Compound 186, (S)-2-amino-4-(difluoromethyl)-6-((1-(8-fluoro-4-oxo-3-(1H-pyrazol-3-yl)-3,4-dihydroquinazolin-2-yl)ethyl)amino)pyrimidine-5-carbonitrile] | 
4 |  |  | C[C@H](Nc1nc(N)nc(N)c1Cl)c1nc2cccc(F)c2c(=O)n1-c1cc[nH]n1 [Compound 151, (S)-2-(1-((2,6-diamino-5-chloropyrimidin-4-yl)amino)ethyl)-5-fluoro-3-(1H-pyrazol-3-yl)quinazolin-4(3H)-one] | IC50 [1]: > 10 µM
5 |  | 1.3 | C[C@H](Nc1nc(N)nc(C(F)F)c1C#N)c1nc2c(Cl)cc(F)cc2c(=O)n1-c1cc[nH]n1 [Compound 173, (S)-2-amino-4-((1-(8-chloro-6-fluoro-4-oxo-3-(1H-pyrazol-3-yl)-3,4-dihydroquinazolin-2-yl)ethyl)amino)-6-(difluoromethyl)pyrimidine-5-carbonitrile] | 
6 |  |  | C[C@H](Nc1nc(N)nc(N)c1Cl)c1nc2c(F)cccc2c(=O)n1-c1cc[nH]n1 [Compound 153, (S)-2-(1-((2,6-diamino-5-chloropyrimidin-4-yl)amino)ethyl)-8-fluoro-3-(1H-pyrazol-3-yl)quinazolin-4(3H)-one] | IC50 [1]: > 10 µM
7 |  |  | C[C@@H](Nc1nc(N)nc(N)c1Cl)c1nc2c(Cl)cc(F)cc2c(=O)n1-c1cc[nH]n1 [Compound 174, (R)-8-chloro-2-(1-((2,6-diamino-5-chloropyrimidin-4-yl)amino)ethyl)-6-fluoro-3-(1H-pyrazol-3-yl)quinazolin-4(3H)-one] | IC50 [1]: > 10 µM
8 |  | 2.3 | C[C@H](Nc1nc(N)nc(C(F)F)c1C#N)c1nc2c(F)cc(F)cc2c(=O)n1-c1cc[nH]n1 [Compound 187, (S)-2-amino-4-((1-(6,8-difluoro-4-oxo-3-(1H-pyrazol-3-yl)-3,4-dihydroquinazolin-2-yl)ethyl)amino)-6-(difluoromethyl)pyrimidine-5-carbonitrile] | IC50 [2]: 0.006 µM
9 |  |  | C[C@H](Nc1nc(N)nc(N)c1Cl)c1nc2c(Cl)cc(F)cc2c(=O)n1-c1cc[nH]n1 [Compound 123, (S)-8-chloro-2-(1-((2,6-diamino-5-chloropyrimidin-4-yl)amino)ethyl)-6-fluoro-3-(1H-pyrazol-3-yl)quinazolin-4(3h)-one] | IC50 [1]: > 10 µM
10 |  | > 10 | CC[C@H](Nc1nc(N)nc(N)c1Cl)c1nc2c(Cl)cc(F)cc2c(=O)n1-c1cc[nH]n1 [Compound 257, (S)-8-chloro-2-(1-((2,6-diamino-5-chloropyrimidin-4-yl)amino)propyl)-6-fluoro-3-(1H-pyrazol-3-yl)quinazolin-4(3H)-one] | 
11 |  | > 10 | C[C@H](Nc1nc(N)nc(C(F)F)c1Cl)c1nc2cc(F)cc(F)c2c(=O)n1-c1cc[nH]n1 [Compound 233, (S)-2-(1-((2-amino-5-chloro-6-(difluoromethyl)pyrimidin-4-yl)amino)ethyl)-5,7-difluoro-3-(1H-pyrazol-3-yl)quinazolin-4(3H)-one] | IC50 [2]: 10 µM
12 | 0.19 |  | N#Cc1c(N)nc(N)nc1N[C@H](c1nc2cccc(Cl)c2c(=O)n1-c1cc[nH]n1)C1CC1 [Compound 18, (S)-2,4-diamino-6-(((5-chloro-4-oxo-3-(1H-pyrazol-3-yl)-3,4-dihydroquinazolin-2-yl)(cyclopropyl)methyl)amino)pyrimidine-5-carbonitrile] | 
13 |  | > 10 | C[C@H](Nc1nc(N)nc(C(F)F)c1C#N)c1nc2cccc(F)c2c(=O)n1-c1cc[nH]n1 [Compound 191, (S)-2-amino-4-(difluoromethyl)-6-((1-(5-fluoro-4-oxo-3-(1H-pyrazol-3-yl)-3,4-dihydroquinazolin-2-yl)ethyl)amino)pyrimidine-5-carbonitrile] | 
14 |  |  | C[C@H](Nc1cc(N)nc(N)n1)c1nc2cccc(Cl)c2c(=O)n1-c1cc[nH]n1 [Compound 163, (S)-5-chloro-2-(1-((2,6-diaminopyrimidin-4-yl)amino)ethyl)-3-(1H-pyrazol-3-yl)quinazolin-4(3H)-one] | IC50 [1]: > 10 µM
15 | 0.051 |  | C[C@H](Nc1nc(N)nc(N)c1C#N)c1nc2cccc(Cl)c2c(=O)n1-c1cc[nH]n1 [Compound 16, (S)-2,4-diamino-6-((1-(5-chloro-4-oxo-3-(1H-pyrazoyl)-3,4-dihydroquinazolin-2-yl)ethyl)amino)pyrimidine-5-carbonitrile] | 
16 |  | > 10 | C[C@H](Nc1nc(N)nc(C(F)F)c1Cl)c1nc2c(F)c(F)ccc2c(=O)n1-c1cc[nH]n1 [Compound 234, (S)-2-(1-((2-amino-5-chloro-6-(difluoromethyl)pyrimidin-4-yl)amino)ethyl)-7,8-difluoro-3-(1H-pyrazol-3-yl)quinazolin-4(3H)-one] | IC50 [2]: 7.6 µM
17 |  | 8 | C[C@H](Nc1nc(N)nc(C(F)F)c1C#N)c1nc2ccc(F)cc2c(=O)n1-c1cc[nH]n1 [Compound 193, (S)-2-amino-4-(difluoromethyl)-6-((1-(6-fluoro-4-oxo-3-(1H-pyrazol-3-yl)-3,4-dihydroquinazolin-2-yl)ethyl)amino)pyrimidine-5-carbonitrile] | 
18 | 0.63 |  | N#Cc1c(N)nc(N)nc1N[C@H](c1nc2c(Cl)cc(F)cc2c(=O)n1-c1cc[nH]n1)C1CC1 [Compound 125, (S)-2,4-diamino-6-(((8-chloro-6-fluoro-4-oxo-3-(1H-pyrazol-3-yl)-3,4-dihydroquinazolin-2-yl)(cyclopropyl)methyl)amino)pyrimidine-5-carbonitrile] | 
19 | 1.3 |  | N#Cc1c(Cl)nc(N)nc1N[C@H](c1nc2cccc(Cl)c2c(=O)n1-c1cc[nH]n1)C1CC1 [Compound 63, (S)-2-amino-4-chloro-6-(((5-chloro-4-oxo-3-(1H-pyrazol-3-yl)-3,4-dihydroquinazolin-2-yl)(cyclopropyl)methyl)amino)pyrimidine-5-carbonitrile] | 
20 |  | 1.1 | N#Cc1c(N[C@H](c2nc3cccc(Cl)c3c(=O)n2-c2cc[nH]n2)C2CC2)nc(N)nc1C(F)F [Compound 171, (S)-2-amino-4-(((5-chloro-4-oxo-3-(1H-pyrazol-3-yl)-3,4-dihydroquinazolin-2-yl)(cyclopropyl)methyl)amino)-6-(difluoromethyl)pyrimidine-5-carbonitrile] | 
21 |  | > 10 | C[C@H](Nc1nc(N)nc(C(F)(F)F)c1C#N)c1nc2cccc(Cl)c2c(=O)n1-c1cc[nH]n1 [Compound 168, (S)-2-amino-4-((1-(5-chloro-4-oxo-3-(1H-pyrazol-3-yl)-3,4-dihydroquinazolin-2-yl)ethyl)amino)-6-(trifluoromethyl)pyrimidine-5-carbonitrile] | 
22 |  | 7.8 | CC[C@H](Nc1nc(N)nc(C(F)F)c1C#N)c1nc2c(Cl)cc(F)cc2c(=O)n1-c1cc[nH]n1 [Compound 180, (S)-2-amino-4-((1-(8-chloro-6-fluoro-4-oxo-3-(1H-pyrazol-3-yl)-3,4-dihydroquinazolin-2-yl)propyl)amino)-6-(difluoromethyl)pyrimidine-5-carbonitrile] | 
23 |  | 3.5 | N#Cc1c(N[C@H](c2nc3c(Cl)cc(F)cc3c(=O)n2-c2cc[nH]n2)C2CC2)nc(N)nc1C(F)F [Compound 172, (S)-2-amino-4-(((8-chloro-6-fluoro-4-oxo-3-(1H-pyrazol-3-yl)-3,4-dihydroquinazolin-2-yl)(cyclopropyl)methyl)amino)-6-(difluoromethyl)pyrimidine-5-carbonitrile] | 
24 | 0.27 |  | Cc1nc(N)nc(N[C@H](c2nc3cccc(Cl)c3c(=O)n2-c2cc[nH]n2)C2CC2)c1C#N [Compound 28, (S)-2-amino-4-(((5-chloro-4-oxo-3-(1H-pyrazol-3-yl)-3,4-dihydroquinazolin-2-yl)(cyclopropyl)methyl)amino)-6-methylpyrimidine-5-carbonitrile] | 
25 |  |  | C[C@H](Nc1nc(N)nc(N)c1Cl)c1nc2ccc(F)cc2c(=O)n1-c1cc[nH]n1 [Compound 111, (S)-2-(1-((2,6-diamino-5-chloropyrimidin-4-yl)amino)ethyl)-6-fluoro-3-(1H-pyrazol-3-yl)quinazolin-4(3h)-one] | IC50 [1]: > 10 µM

Row | SMILES | IC50 [1, 3] [µM] | IC50 [1, 4] [µM] | also measured
26 | C[C@H](Nc1ncnc(N)c1C#N)c1nc2cccc(Cl)c2c(=O)n1-c1cn[nH]c1 [Compound 2, (S)-4-amino-6-((1-(5-chloro-4-oxo-3-(1H-pyrazol-4-yl)-3,4-dihydroquinazolin-2-yl)ethyl)amino)pyrimidine-5-carbonitrile] | 0.99 |  | 
27 | C[C@H](Nc1nc(N)nc(N)c1Cl)c1nc2c(F)cc(F)cc2c(=O)n1-c1cc[nH]n1 [Compound 161, (S)-2-(1-((2,6-diamino-5-chloropyrimidin-4-yl)amino)ethyl)-6,8-difluoro-3-(1H-pyrazol-3-yl)quinazolin-4(3H)-one] |  | 4.4 | 
28 | C[C@H](Nc1ncnc(N)c1C#N)c1nc2cccc(Cl)c2c(=O)n1-c1cc[nH]n1 [Compound 22, (S)-4-amino-6-((1-(5-chloro-4-oxo-3-(1H-pyrazol-3-yl)-3,4-dihydroquinazolin-2-yl)ethyl)amino)pyrimidine-5-carbonitrile] | 0.99 |  | 
29 | C[C@H](Nc1nc(N)nc(N)c1Cl)c1nc2cccc(Cl)c2c(=O)n1-c1cc[nH]n1 [Compound 64, (S)-5-chloro-2-(1-((2,6-diamino-5-chloropyrimidin-4-yl)amino)ethyl)-3-(1H-pyrazol-3-yl)quinazolin-4(3H)-one] | 1.2 |  | 
